Consider 20 molecules from publication doi:10.1101/2024.08.19.608619, “Discovery of potent SARS-CoV-2 nsp3 macrodomain inhibitors uncovers lack of translation to cellular antiviral response” (bioRxiv, 2024).

The nature of data set [1]: In vitro kinetic solubility. The conditions noted are these: In vitro kinetic solubility, ph 7.4.
A short description of data set [2]: Hepatic microsomal stability, HLM. The conditions noted are these: In vitro human liver microsomal stability; for perc_remaining_no_cofactor: no cofactor. The format is in vitro ADME, human. (Microsomes from liver hold many membrane-bound enzymes, among them those of drug oxidation.)
Data set [3] is described as follows: Hepatic microsomal stability, MLM. The format is in vitro ADME.
The nature of data set [4]: Permeability Papp (AB) MDR1/MDCKII. The conditions noted are these: In vitro MDR1-MDCKII permeability; for papp_a_to_b_mean: A to B; for perc_recovery_a_to_b_mean: recovery A to B.
The nature of another data set: LogD. The conditions noted are these: pH 7.4.
In data set [5] the target is T1, SARS-CoV-2 nsp3-mac1 (Severe acute respiratory syndrome coronavirus 2, UniProt P0DTD1). Kind of data set: biochemical. The conditions noted are these: SARS-CoV-2 nsp3 macrodomain TR-FRET single point. The format is biochemical. In general terms: TR-FRET usually uses a lanthanide donor and a delayed reading to cut background.
For data set [6], the target named is T1, SARS-CoV-2 nsp3-mac1. Description: biochemical. Set-up: SARS-CoV-2 nsp3 macrodomain TR-FRET single point, per cent inhibition, n=2.
Setting [7] is: In vitro mouse liver microsomal stability.
Setting [8] is: In vitro mouse liver microsomal stability, no cofactor.
[9] abbreviates: read-out: perc_inhibition_mean, batch_name=ASAP-0000364-001.
Where [10] appears, read: read-out: perc_inhibition_mean, batch_name=ASAP-0000413-001.
Where [11] appears, read: read-out: perc_inhibition_mean, batch_name=ASAP-0000458-001.
[12] abbreviates: read-out: perc_inhibition_mean, batch_name=ASAP-0000454-001.
Setting [13] is: read-out: perc_inhibition_mean, batch_name=ASAP-0000330-001.
Where [14] appears, read: read-out: perc_inhibition_mean, batch_name=ASAP-0000324-001.
Setting [15] is: read-out: perc_inhibition_mean, batch_name=ASAP-0000355-001.
Where [16] appears, read: read-out: perc_inhibition_mean, batch_name=ASAP-0000295-001.

Molecules are shown by their SMILES. Values after ≈ are worked out from the molar mass of the structure shown. Values joined by “and” are separate entries in the source; they are usually repeats but may differ in a detail not shown here. Equal values may be shown once. Read-outs that look alike come from different tables or passages of the source.

`CC(C)[C@H](Nc1ncnc2[nH]c(-c3cnn(CC(N)=O)c3)cc12)c1ccc2c(c1)OCCO2` (single isomer, unassigned) [ASAP-0008450] yielded a solubility_mean in data set [1] of 332 µM (≈ 149 µg/mL). In addition, in data set [2], the clint amounted to 238.0 µL/min/mg, the perc_remaining is on record as 2.0%, the t_half turned out to be 7.0 min and the perc_remaining_no_cofactor worked out at 90.0%. In addition, in data set [3] (setting [7]), the clint was 42.0 µL/min/mg, the perc_remaining came to 49.0% and the t_half is 40.0 min. In addition, in data set [3] (setting [8]), the perc_remaining_no_cofactor was found to be 98.0%. Moreover, in data set [4] (mean), the papp_a_to_b_mean stood at 1.87 ×10⁻⁶ cm/s and the perc_recovery_a_to_b_mean was 90.9%. The molecule also showed a logd in the data set “LogD” (In vitro LogD) of 2.9.
Turning to `CNC(=O)c1cc2c(N[C@@H](c3ccc4c(c3)NC(=O)CO4)C(C)C)ncnc2[nH]1` [ASAP-0008571], the solubility_mean in data set [1] was found to be 372 µM (≈ 147 µg/mL). Besides, in data set [2], the clint came out at 52.0 µL/min/mg, the perc_remaining is 39.0%, the t_half turned out to be 32.0 min and the perc_remaining_no_cofactor is 94.0%. In data set [3] (setting [7]), this molecule had a clint of 20.0 µL/min/mg, a perc_remaining of 71.0% and a t_half of 84.4 min. Also, the perc_remaining_no_cofactor in data set [3] (setting [8]) is 103.0%. Moreover, in data set [4] (mean), the papp_a_to_b_mean stood at 0.873 ×10⁻⁶ cm/s and the perc_recovery_a_to_b_mean was determined as 88.1%. The molecule also gave a logd in “LogD” (In vitro LogD) of 2.8.
Consider `CC(C)[C@H](Nc1ncnc2[nH]c(-c3cnn(CC(=O)N(C)C)c3)cc12)c1ccc2c(c1)OCCO2` (single isomer, unassigned) [ASAP-0013833], for which the solubility_mean in data set [1] turned out to be 19 µM (≈ 9.04 µg/mL). Moreover, in data set [2], the clint turned out to be 500.0 µL/min/mg, the perc_remaining is on record as 0.0%, the t_half was 3.3 min and the perc_remaining_no_cofactor is on record as 115.0%. In data set [3] (setting [7]), this molecule had a clint of 35.0 µL/min/mg, a perc_remaining of 54.0% and a t_half of 48.1 min. In addition, the perc_remaining_no_cofactor in data set [3] (setting [8]) worked out at 102.0%. Also, in data set [4] (no inhibitor), the papp_a_to_b_mean worked out at 2.05 ×10⁻⁶ cm/s and the perc_recovery_a_to_b_mean was 82.0%. In the data set “LogD” (In vitro LogD), this molecule registered a logd of 2.9.
In the case of `Cn1ncc(-c2cc3c(N[C@H](c4ccc5c(n4)OCCO5)C(C)(C)C)ncnc3[nH]2)c1C#N` (racemic) [ASAP-0008645], the solubility_mean in data set [1] is 25 µM and 24 µM. Besides, in data set [2], the clint was 70.0 µL/min/mg and 81.0 µL/min/mg; the perc_remaining is 30.0% and 27.0%; the t_half was 23.9 min and 20.6 min; the perc_remaining_no_cofactor is 91.0% and 108.0%. Moreover, in data set [3] (setting [7]), the clint is 188.0 µL/min/mg and 209.0 µL/min/mg; the perc_remaining is 5.0% and 4.0%; the t_half was 8.9 min and 8.0 min. In addition, the perc_remaining_no_cofactor in data set [3] (setting [8]) was 106.0%. For the same molecule, in data set [3] (In vitro mouse liver microsomal stability; no cofactor), the perc_remaining_no_cofactor came to 101.0%. Besides, in data set [4] (mean), the papp_a_to_b_mean was 9.87 ×10⁻⁶ cm/s and 13.5 ×10⁻⁶ cm/s; the perc_recovery_a_to_b_mean is 73.4% and 58.4%.
The molecule `CNC(=O)c1cc2c(N[C@H](c3ccc4c(c3)S(=O)(=O)CCC4)C(C)C)ncnc2[nH]1` (single isomer, unassigned) [ASAP-0012340] yielded a solubility_mean in data set [1] of 374 µM (≈ 160 µg/mL). Moreover, in data set [2], the clint is 67.0 µL/min/mg, the perc_remaining stood at 33.0%, the t_half worked out at 25.0 min and the perc_remaining_no_cofactor is recorded as 107.0%. In data set [3] (setting [7]), this molecule registered a clint of 47.0 µL/min/mg, a perc_remaining of 42.0% and a t_half of 35.3 min. For the same molecule, in data set [3] (setting [8]), the perc_remaining_no_cofactor was 106.0%. Besides, in data set [4] (no inhibitor), the papp_a_to_b_mean was 0.891 ×10⁻⁶ cm/s and the perc_recovery_a_to_b_mean is recorded as 74.2%. Besides, the logd in the data set “LogD” (In vitro LogD) amounted to 2.3.
In “LogD”, `CC(C)C(Nc1ncnc2[nH]ccc12)c1ccc2c(n1)OCCO2` (stereo not shown) [ASAP-0008270] registered a logd of 2.8.
The molecule `O=C(O)C[C@H](NC(=O)c1ncnc2[nH]ccc12)c1ccc(Br)cc1` [ASAP-0000136] had a logd in “LogD” (In vitro LogD) of 0.22.
In the data set “LogD” (In vitro LogD), `CC(C)[C@@H](Nc1ncnc2[nH]ccc12)c1ccc2c(c1)OCCO2` [ASAP-0008279] yielded a logd of 3.0.
Consider `O=C(c1ccnnc1O)N1CCC(c2ccn3ncc(C(=O)N4CCCCC4)c3c2)CC1` [ASAP-0000364], for which the perc_inhibition_mean on SARS-CoV-2 nsp3-mac1 [5] (concentration 49.75 uM) was -7.591%. Also, the perc_inhibition_mean at SARS-CoV-2 nsp3-mac1 [5] (concentration 99.5 uM) came out at 10.21%. Also, at SARS-CoV-2 nsp3-mac1 [6] (setting [9]), the inhibition at 49.75 µM was -7.59% and the inhibition at 99.5 µM is 10.2%.
Consider `O=C1CC[C@@H](CNC(=O)c2cnn3ccc(C4CCN(C(=O)c5ccccc5)CC4)cc23)N1` [ASAP-0000413], for which the perc_inhibition_mean at SARS-CoV-2 nsp3-mac1 [5] (concentration 49.75 uM) is -2.317%. On SARS-CoV-2 nsp3-mac1 [5] (concentration 99.5 uM), the perc_inhibition_mean is on record as -1.468%. Besides, at SARS-CoV-2 nsp3-mac1 [6] (setting [10]), the inhibition at 49.75 µM was -2.32% and the inhibition at 99.5 µM is -1.47%.
With `O=C(O)c1ccc2c(c1)ncn2-c1ccc(CNC(=O)c2ncnc3[nH]ccc23)cc1` [ASAP-0000458], the perc_inhibition_mean on SARS-CoV-2 nsp3-mac1 [5] (concentration 49.75 uM) is listed as -33.429%. Further, the perc_inhibition_mean at SARS-CoV-2 nsp3-mac1 [5] (concentration 99.5 uM) is -4.649%. On SARS-CoV-2 nsp3-mac1 [6] (setting [11]), the inhibition at 49.75 µM was -33.4% and the inhibition at 99.5 µM was -4.65%.
Consider `CC(C)[C@@H]1[C@H](O)CCN1c1ncnc2[nH]ccc12` [ASAP-0000454], for which the perc_inhibition_mean at SARS-CoV-2 nsp3-mac1 [5] (concentration 49.75 uM) came to 17.696%. Further, at SARS-CoV-2 nsp3-mac1 [5] (concentration 99.5 uM), the perc_inhibition_mean is 32.152%. Further, at SARS-CoV-2 nsp3-mac1 [6] (setting [12]), the inhibition at 49.75 µM stood at 17.7% and the inhibition at 99.5 µM came to 32.2%.
With `CC(C)OCCNC(=O)c1cc2c(=O)n3ccccc3nc2n1C` [ASAP-0000071], the perc_inhibition_mean on SARS-CoV-2 nsp3-mac1 [5] (concentration 50.0 uM) worked out at 14.037%. In addition, the inhibition at 50 µM at SARS-CoV-2 nsp3-mac1 [6] (read-out: perc_inhibition_mean, batch_name=ASAP-0000071-001) is 14%.
On to `Cc1n[nH]c(C)c1C(=O)N1CCC(c2ccn3ncc(C(=O)N4CCCCC4)c3c2)CC1` [ASAP-0000330], for which the perc_inhibition_mean at SARS-CoV-2 nsp3-mac1 [5] (concentration 49.75 uM, n=2) was found to be 10.806%. Further, at SARS-CoV-2 nsp3-mac1 [5] (concentration 99.5 uM, n=2), the perc_inhibition_mean amounted to 23.296%. In addition, at SARS-CoV-2 nsp3-mac1 [6] (setting [13]), the inhibition at 49.75 µM came out at 10.8% and the inhibition at 99.5 µM was 23.3%.
With `CO[C@@H]1CCCN(C(=O)c2cnn3ccc(C4CCN(C(=O)c5ccccc5)CC4)cc23)C1` [ASAP-0000324], the perc_inhibition_mean at SARS-CoV-2 nsp3-mac1 [5] (concentration 49.75 uM, n=2) is listed as 22.606%; at SARS-CoV-2 nsp3-mac1 [5] (concentration 99.5 uM, n=2) it was 39.842%. For the same molecule, on SARS-CoV-2 nsp3-mac1 [6] (setting [14]), the inhibition at 49.75 µM was determined as 22.6%. At SARS-CoV-2 nsp3-mac1 [6] (setting [14]), the inhibition at 99.5 µM was found to be 39.8%.
As to `O=C(Nc1cnc2[nH]ncc2c1)c1noc2c1CCCC2` [ASAP-0000010], the perc_inhibition_mean at SARS-CoV-2 nsp3-mac1 [5] (concentration 50.0 uM) is reported as -1.398%. Also, the inhibition at 50 µM at SARS-CoV-2 nsp3-mac1 [6] (read-out: perc_inhibition_mean, batch_name=ASAP-0000010-001) is -1.4%.
On to `O=C(NCc1ncccn1)c1cnn2ccc(C3CCN(C(=O)c4ccccc4)CC3)cc12` [ASAP-0000355], for which the results for the perc_inhibition_mean on SARS-CoV-2 nsp3-mac1 [5] (concentration 49.75 uM) and at SARS-CoV-2 nsp3-mac1 [5] (concentration 99.5 uM) were -0.074% and -6.657%, respectively. Moreover, the inhibition at 49.75 µM on SARS-CoV-2 nsp3-mac1 [6] (setting [15]) is -0.074%. Moreover, on SARS-CoV-2 nsp3-mac1 [6] (setting [15]), the inhibition at 99.5 µM is -6.66%.
As to `O=C(Nc1ccccc1)Nc1ccc(C(=O)N2CCc3nc[nH]c3C2)cc1` [ASAP-0000295], the perc_inhibition_mean at SARS-CoV-2 nsp3-mac1 [5] (concentration 49.75 uM, n=2) is given as -3.024%. Also, the perc_inhibition_mean at SARS-CoV-2 nsp3-mac1 [5] (concentration 99.5 uM, n=2) was -2.379%. Further, on SARS-CoV-2 nsp3-mac1 [6] (setting [16]), the inhibition at 49.75 µM is -3.02% and the inhibition at 99.5 µM is -2.38%.
Regarding `COc1cccc2cc(CNc3cnc4[nH]ncc4c3)oc12` [ASAP-0000028], the perc_inhibition_mean on SARS-CoV-2 nsp3-mac1 [5] (concentration 50.0 uM) is -4.293%. The inhibition at 50 µM on SARS-CoV-2 nsp3-mac1 [6] (read-out: perc_inhibition_mean, batch_name=ASAP-0000028-001) was -4.29%.
In the case of `OCc1cn([C@@H]2CCCN(c3ncnc4[nH]ccc34)C2)nn1` [ASAP-0000047], the perc_inhibition_mean on SARS-CoV-2 nsp3-mac1 [5] (concentration 50.0 uM) is on record as -0.682%. In addition, the inhibition at 50 µM at SARS-CoV-2 nsp3-mac1 [6] (read-out: perc_inhibition_mean, batch_name=ASAP-0000047-001) was -0.682%.
